Assay [1] has as its system MV4-11. The assay can be described thus: Induction of cell cycle arrest in human MV4-11 cells assessed as accumulation of cells at S phase at 50 nM incubated for 48 hrs by […]PI staining based flow cytometry (reference value: 45.5%). Format: functional.
For assay [2], the system named is MV4-11. Description: Induction of apoptosis in human MV4-11 cells assessed as late apoptotic cells at 450 nM incubated for 48 hrs by Annexin V-FITC/PI staining based flow cytometry (reference value: 2.04%). It is filed as functional.
The next assay relates to MCF7. Description: Antiproliferative activity against human MCF7 cells assessed as inhibition of cell proliferation incubated for 72 hrs by MTT assay. As to conditions: MCF7, 72 h. It is filed as functional, cell-based.
Assay [3] deals with MV4-11. The assay can be described thus: Induction of cell cycle arrest in human MV4-11 cells assessed as accumulation of cells at G0/G1 phase at 50 nM incubated for 48 hrs by […]PI staining based flow cytometry (reference value: 33.1%). It is filed as functional.
Assay [4] relates to MV4-11. The assay can be described thus: Induction of cell cycle arrest in human MV4-11 cells assessed as accumulation of cells at S phase at 150 nM incubated for 48 hrs by […]PI staining based flow cytometry (reference value: 45.5%). Format: functional.
For assay [5], the system named is MV4-11. Description: Induction of apoptosis in human MV4-11 cells assessed as late apoptotic cells at 50 nM incubated for 48 hrs by Annexin V-FITC/PI staining based flow cytometry (reference value: 2.04%). Format: functional.
In a further assay the test system is A549. The assay can be described thus: Antiproliferative activity against human A549 cells assessed as inhibition of cell proliferation incubated for 72 hrs by MTT assay. Format: functional, cell-based. As to conditions: A549, 72 h.
For another assay, the system named is K562. Description: cells. It is filed as functional, cell-based. As to conditions: Homo sapiens, K562, 72 h.
Assay [6] has as its system MV4-11. The assay can be described thus: Induction of apoptosis in human MV4-11 cells assessed as necrotic cells at 150 nM incubated for 48 hrs by Annexin V-FITC/PI staining based flow cytometry (reference value: 0.51%). Format: functional.
The subject of assay [7] is MV4-11. The assay can be described thus: cells. It is filed as functional, cell-based. To be noted: Homo sapiens, MV4-11, 72 h.
Description: Antiproliferative activity against human MV4-11 cells assessed as inhibition of cell proliferation incubated for 72 hrs by CCK8 assay
The subject of assay [8] is MV4-11. The assay can be described thus: Induction of cell cycle arrest in human MV4-11 cells assessed as accumulation of cells at G0/G1 phase at 150 nM incubated for 48 hrs by […]PI staining based flow cytometry (reference value: 33.1%). Format: functional.
For assay [9], the system named is MV4-11. Description: Induction of cell cycle arrest in human MV4-11 cells assessed as accumulation of cells at S phase at 1350 nM incubated for 48 hrs by […]PI staining based flow cytometry (reference value: 45.5%). Format: functional.
The target of assay [10] is T1, Protein deacetylase HDAC6 (Homo sapiens, UniProt Q9UBN7).
T1 sequence (Q9UBN7 whole entry): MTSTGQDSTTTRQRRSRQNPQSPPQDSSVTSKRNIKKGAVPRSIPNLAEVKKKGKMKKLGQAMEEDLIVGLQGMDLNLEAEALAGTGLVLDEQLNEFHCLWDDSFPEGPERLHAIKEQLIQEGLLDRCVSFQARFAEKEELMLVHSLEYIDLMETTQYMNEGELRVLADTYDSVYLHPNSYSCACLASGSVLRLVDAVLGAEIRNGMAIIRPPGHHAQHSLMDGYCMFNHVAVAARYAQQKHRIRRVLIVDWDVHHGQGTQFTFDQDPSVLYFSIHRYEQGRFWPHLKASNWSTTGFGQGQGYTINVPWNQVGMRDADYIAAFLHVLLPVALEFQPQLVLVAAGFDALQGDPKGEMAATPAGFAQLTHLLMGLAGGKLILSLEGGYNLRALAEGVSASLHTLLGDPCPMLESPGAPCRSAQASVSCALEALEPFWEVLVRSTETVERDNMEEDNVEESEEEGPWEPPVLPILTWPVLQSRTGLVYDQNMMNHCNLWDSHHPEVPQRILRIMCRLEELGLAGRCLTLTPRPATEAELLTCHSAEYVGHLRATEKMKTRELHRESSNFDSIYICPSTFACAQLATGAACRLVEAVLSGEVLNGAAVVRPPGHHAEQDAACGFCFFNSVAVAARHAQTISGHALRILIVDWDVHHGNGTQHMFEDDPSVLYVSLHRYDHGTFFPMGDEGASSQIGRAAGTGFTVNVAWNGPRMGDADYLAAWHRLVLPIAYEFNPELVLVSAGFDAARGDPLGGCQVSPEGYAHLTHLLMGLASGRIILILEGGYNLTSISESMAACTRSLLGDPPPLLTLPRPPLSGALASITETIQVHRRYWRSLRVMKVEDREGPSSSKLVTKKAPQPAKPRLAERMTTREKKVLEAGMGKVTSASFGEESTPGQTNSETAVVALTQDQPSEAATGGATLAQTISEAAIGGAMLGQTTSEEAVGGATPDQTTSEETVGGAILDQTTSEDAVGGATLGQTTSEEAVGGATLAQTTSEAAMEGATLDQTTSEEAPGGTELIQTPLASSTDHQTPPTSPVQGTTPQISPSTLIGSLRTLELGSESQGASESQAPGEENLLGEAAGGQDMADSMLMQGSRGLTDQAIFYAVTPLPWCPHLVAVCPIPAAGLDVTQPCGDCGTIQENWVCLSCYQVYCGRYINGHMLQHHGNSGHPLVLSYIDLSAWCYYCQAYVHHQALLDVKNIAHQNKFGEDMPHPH
Description: Inhibition of HDAC6 (unknown origin).

Assay [11] relates to MV4-11. Description: Inhibition of PI3K in human MV4-11 cells assessed as downregulation of phosphorylated AKT expression incubated for 24 hrs by western blot analysis. Format: cell-based. To be noted: dose 0.05-0.45 µM, DDE = dose-dependent effect.
Assay [12] relates to MV4-11. Description: Induction of apoptosis in human MV4-11 cells assessed as total apoptotic cells at 150 nM incubated for 48 hrs by Annexin V-FITC/PI staining based flow cytometry (reference value: 2.99%). Format: functional.
The next assay deals with HGC-27. The assay can be described thus: Antiproliferative activity against human HGC-27 cells assessed as inhibition of cell proliferation incubated for 72 hrs by MTT assay. Format: functional, cell-based. To be noted: HGC-27, 72 h.
For assay [13], the system named is MV4-11. The assay can be described thus: Induction of apoptosis in human MV4-11 cells assessed as early apoptotic cells at 450 nM incubated for 48 hrs by Annexin V-FITC/PI staining based flow cytometry (reference value: 0.95%). Format: functional.
The test system of assay [14] is MV4-11. The assay can be described thus: Induction of apoptosis in human MV4-11 cells assessed as early apoptotic cells at 50 nM incubated for 48 hrs by Annexin V-FITC/PI staining based flow cytometry (reference value: 0.95%). Format: functional.
Assay [15] relates to MV4-11. The assay can be described thus: Induction of cell cycle arrest in human MV4-11 cells assessed as accumulation of cells at G2/M phase at 1350 nM incubated for 48 hrs by […]PI staining based flow cytometry (reference value: 11.5%). It is filed as functional.
Assay [16] deals with MV4-11. The assay can be described thus: Induction of apoptosis in human MV4-11 cells assessed as late apoptotic cells at 150 nM incubated for 48 hrs by Annexin V-FITC/PI staining based flow cytometry (reference value: 2.04%). It is filed as functional.
The test system of assay [17] is MV4-11. The assay can be described thus: Induction of apoptosis in human MV4-11 cells assessed as viable cells at 450 nM incubated for 48 hrs by Annexin V-FITC/PI staining based flow cytometry (reference value: 96.5%). It is filed as functional. As to conditions: read-out: Activity.
The subject of assay [18] is MV4-11. The assay can be described thus: Induction of cell cycle arrest in human MV4-11 cells assessed as accumulation of cells at G2/M phase at 450 nM incubated for 48 hrs by […]PI staining based flow cytometry (reference value: 11.5%). It is filed as functional.

Description for K562: Antiproliferative activity against human K562 cells assessed as inhibition of cell proliferation incubated for 72 hrs by CCK8 assay

With `O=C(NO)c1ccc(Cn2cc(-c3cccc4[nH]ncc34)nc(N3CCOCC3)c2=O)cc1`, the Activity is 37.8% with MV4-11 [1]; 46.1% in the assay with MV4-11 [2]; 28.4% in the assay on MV4-11 [3]; 31% in the assay with MV4-11 [4]; 3.67% with MV4-11 [5]; 3.45% with MV4-11 [6]. Moreover, the Activity in the assay with MV4-11 [8] amounted to 25.6%; with MV4-11 [9] it was 25.2%; in the assay on MV4-11 [12], 16.94%; in the assay on MV4-11 [13], 34.6%; with MV4-11 [14], 3.53%; in the assay with MV4-11 [15], 51.8%. The Activity with MV4-11 [16] amounted to 14.5%; with MV4-11 [18], 38.3%. For the same compound, the IC50 is 400 nM in the assay on MCF7; 11000 nM with A549; 120 nM with K562; 90 nM in the assay with MV4-11 [7]; 4.5 nM in assay [10]; 880 nM with HGC-27. The inhibition result in the assay on MV4-11 [11] is “Dde”. For the same compound, in the assay on MV4-11 [17], the viability at 0.45 µM is 18.7%.

Source of the values: ChEMBL document CHEMBL5096219, “Design, synthesis and biological evaluation of novel pyrazinone derivatives as PI3K/HDAC dual inhibitors” (Bioorg Med Chem, 2022).
